# Source: ChEMBL document CHEMBL3886245, “Dual modulators of 5HT2A and D3 receptors” (2014)
# Columns and labels:
# D(3) dopamine receptor = D(3) dopamine receptor (Homo sapiens, UniProt P35462); test: (§1) Membranes were incubated in a total volume of 200 ul with a fixed concentration of radioligand (final concentration approximately 0.7 nM [3H]-spiperone for D2, 0.5 nM [3H]-spiperone for D3, and 1.1 nM [3H]-ketanserin for 5-HT2A) and ten concentrations of test compound in ranging between 10 uM-0.1 nM for 1 h at RT. At the end of the incubation, the reaction mixtures were filtered on to unifilter 96-well white microplates with bonded GF/C filters.
# [1] = molecular target: 5-hydroxytryptamine receptor 2A (Homo sapiens, UniProt P28223); test: as §1
# Sequence of 5-hydroxytryptamine receptor 2A (P28223 whole entry): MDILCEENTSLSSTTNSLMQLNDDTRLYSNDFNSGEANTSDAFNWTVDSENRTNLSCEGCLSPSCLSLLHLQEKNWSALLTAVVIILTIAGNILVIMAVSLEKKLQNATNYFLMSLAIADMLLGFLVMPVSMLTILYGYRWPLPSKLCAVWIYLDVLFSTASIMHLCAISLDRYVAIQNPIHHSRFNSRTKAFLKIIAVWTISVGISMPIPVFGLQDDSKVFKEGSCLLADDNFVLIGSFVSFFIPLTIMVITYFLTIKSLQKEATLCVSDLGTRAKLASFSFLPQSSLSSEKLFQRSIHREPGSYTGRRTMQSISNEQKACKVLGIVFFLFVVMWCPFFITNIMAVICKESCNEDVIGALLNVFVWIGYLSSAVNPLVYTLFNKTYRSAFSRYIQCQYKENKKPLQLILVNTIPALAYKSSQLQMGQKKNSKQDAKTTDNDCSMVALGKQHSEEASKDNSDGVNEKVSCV
# Sequence of D(3) dopamine receptor (P35462 whole entry): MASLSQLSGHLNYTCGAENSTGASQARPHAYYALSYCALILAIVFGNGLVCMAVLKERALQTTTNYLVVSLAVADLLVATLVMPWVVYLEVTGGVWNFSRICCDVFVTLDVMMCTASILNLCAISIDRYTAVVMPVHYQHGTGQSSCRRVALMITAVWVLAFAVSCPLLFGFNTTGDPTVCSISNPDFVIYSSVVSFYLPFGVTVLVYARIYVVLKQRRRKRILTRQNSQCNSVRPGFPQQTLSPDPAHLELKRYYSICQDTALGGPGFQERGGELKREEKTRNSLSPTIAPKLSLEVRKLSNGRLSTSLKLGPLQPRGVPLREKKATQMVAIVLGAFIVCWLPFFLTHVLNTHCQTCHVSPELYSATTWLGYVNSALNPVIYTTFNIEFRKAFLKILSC
SMILES,Ki (D(3) dopamine receptor),Ki [1]
O=S(=O)(N[C@H]1CC[C@H](CCN2CCC(c3noc4cc(F)ccc34)CC2)CC1)c1cccnc1,1.95 nM,2.48 nM
COCCC(=O)N[C@H]1CC[C@H](CCN2CCC(c3noc4ccc(F)cc34)CC2)CC1,3.1 nM,37 nM
O=C(N[C@H]1CC[C@H](CCN2CCC(c3noc4cc(F)ccc34)CC2)CC1)c1ccc2c(c1)OCO2,2.75 nM,1.71 nM
